# Measurements: PubChem BioAssay (NCI)
# Several values for one entry are separate records, joined by “and”; a condition that tells them apart may be missing. Equal values may be shown once.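 Five concentrations, 48 hours, 96-well plates. Abbreviation: GI50, concentration required for 50% inhibition of growth. Definition used: TGI = concentration required for complete inhibition of growth.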
# Experiments:
# Assay in all cases: DTP human tumour cell line panel, 48 h
# A498 renal = system: A498 renal
# A549 NSCLC = system: A549 NSCLC
# ACHN renal = system: ACHN renal
# CAKI-1 renal = system: CAKI-1 renal
# COLO 205 colon = system: COLO 205 colon
# DU-145 prostate = system: DU-145 prostate
# EKVX NSCLC = system: EKVX NSCLC
# HCC-2998 colon = system: HCC-2998 colon
# HCT-116 colon = system: HCT-116 colon
# HCT-15 colon = system: HCT-15 colon
# HOP-62 NSCLC = system: HOP-62 NSCLC
# HS 578T breast = system: HS 578T breast
# HT29 colon = system: HT29 colon
# IGROV1 ovarian = system: IGROV1 ovarian
# KM12 colon = system: KM12 colon
# LOX IMVI melanoma = system: LOX IMVI melanoma
# M14 melanoma = system: M14 melanoma
# MDA-MB-231 breast = system: MDA-MB-231 breast
# MDA-MB-435 = system: MDA-MB-435
# MDA-N = system: MDA-N
# NCI-H226 lung = system: NCI-H226 lung
# NCI-H23 lung = system: NCI-H23 lung
# NCI-H460 lung = system: NCI-H460 lung
# NCI/ADR-RES ovarian = system: NCI/ADR-RES ovarian
# OVCAR-3 ovarian = system: OVCAR-3 ovarian
# OVCAR-4 ovarian = system: OVCAR-4 ovarian
# OVCAR-5 ovarian = system: OVCAR-5 ovarian
# OVCAR-8 ovarian = system: OVCAR-8 ovarian
# PC-3 prostate = system: PC-3 prostate
# RPMI-8226 leukemia = system: RPMI-8226 leukemia
# SF-295 CNS = system: SF-295 CNS
# SK-MEL-2 melanoma = system: SK-MEL-2 melanoma
# SK-MEL-28 melanoma = system: SK-MEL-28 melanoma
# SK-MEL-5 melanoma = system: SK-MEL-5 melanoma
# SK-OV-3 ovarian = system: SK-OV-3 ovarian
# SN12C renal = system: SN12C renal
# SNB-19 CNS = system: SNB-19 CNS
# SNB-75 CNS = system: SNB-75 CNS
# SW-620 colon = system: SW-620 colon
# T-47D breast = system: T-47D breast
# TK-10 renal = system: TK-10 renal
# U251 CNS = system: U251 CNS
# UACC-257 melanoma = system: UACC-257 melanoma
# UACC-62 melanoma = system: UACC-62 melanoma
# UO-31 renal = system: UO-31 renal
structure (smiles),measurement,setting,value
CN(C)CC(NC(NCS)C(=O)NCCNc1ccc(NCCNC(=O)C(NCS)NC(CN(C)C)OCCl)c2c1C(=O)c1c(O)ccc(O)c1C2=O)OCCl (configuration not stated),TGI,A498 renal,2760 nM
same,TGI,A549 NSCLC,1540 nM
same,TGI,ACHN renal,194 nM
same,TGI,CAKI-1 renal,119 nM
same,TGI,COLO 205 colon,3.28 µM
same,GI50,DU-145 prostate,16.2 nM
same,TGI,DU-145 prostate,977 nM and 287 nM
same,GI50,EKVX NSCLC,516 nM
same,TGI,EKVX NSCLC,1260 nM and 2510 nM
same,TGI,HCC-2998 colon,1860 nM
same,TGI,HCT-116 colon,1720 nM
same,GI50,HCT-15 colon,89.2 nM
same,TGI,HCT-15 colon,1730 nM and 1740 nM
same,TGI,HOP-62 NSCLC,482 nM
same,TGI,HS 578T breast,3.05 µM
same,GI50,HT29 colon,228 nM
same,TGI,HT29 colon,278 nM and 1580 nM
same,TGI,IGROV1 ovarian,2490 nM
same,GI50,KM12 colon,211 nM
same,TGI,KM12 colon,1530 nM and 1840 nM
same,TGI,LOX IMVI melanoma,1850 nM
same,GI50,M14 melanoma,506 nM
same,GI50,MDA-MB-231 breast,1050 nM
same,TGI,MDA-MB-231 breast,305 nM and 2680 nM
same,TGI,MDA-MB-435,1450 nM
same,TGI,MDA-N,1090 nM
same,GI50,NCI-H226 lung,285 nM
same,TGI,NCI-H226 lung,418 nM and 1610 nM
same,TGI,NCI-H23 lung,111 nM
same,TGI,NCI-H460 lung,944 nM
same,GI50,NCI/ADR-RES ovarian,287 nM
same,TGI,NCI/ADR-RES ovarian,4.99 µM and 5.04 µM
same,GI50,OVCAR-3 ovarian,1360 nM
same,GI50,OVCAR-4 ovarian,373 nM
same,TGI,OVCAR-4 ovarian,2780 nM and 1300 nM
same,GI50,OVCAR-5 ovarian,713 nM
same,GI50,OVCAR-8 ovarian,43.6 nM
same,TGI,PC-3 prostate,1460 nM
same,TGI,RPMI-8226 leukemia,30 nM
same,TGI,SF-295 CNS,1390 nM
same,TGI,SK-MEL-2 melanoma,2990 nM
same,GI50,SK-MEL-28 melanoma,2180 nM
same,TGI,SK-MEL-5 melanoma,940 nM
same,TGI,SK-OV-3 ovarian,4.11 µM
same,GI50,SN12C renal,< 1 nM
same,TGI,SN12C renal,477 nM
same,TGI,SNB-19 CNS,1960 nM
same,GI50,SNB-75 CNS,38.7 nM
same,TGI,SNB-75 CNS,1770 nM and 990 nM
same,TGI,SW-620 colon,1250 nM
same,TGI,T-47D breast,1620 nM
same,GI50,TK-10 renal,340 nM
same,TGI,TK-10 renal,2440 nM
same,TGI,U251 CNS,57.5 nM
same,TGI,UACC-257 melanoma,3.6 µM
same,TGI,UACC-62 melanoma,1600 nM
same,TGI,UO-31 renal,1520 nM
